Experimental data as given in paper PMC8508980, “Design, Synthesis and Anticancer Profile of New 4-(1H-benzo[d]imidazol-1-yl)pyrimidin-2-amine-Linked Sulfonamide Derivatives with V600EBRAF Inhibitory Effect” (International Journal of Molecular Sciences, 2021).

Experiments:
T-47D cells = assay: Cell cycle analysis by flow cytometry (propidium iodide); assay type: cell-based; conditions: 5 µM
Description: The distribution of cell cycle was determined by flow cytometric assay after using propidium iodide to stain the DNA content of the treated cells. […] Meanwhile, the cells of the G2-phase decreased to 6% compared to 8% in the untreated cells.
In the beginning, the IC50 of compound 12e over T-47D (American Type Culture Collection, US) was determined using MTT assay, and the same procedure was applied for A375 and SK-MEL-5. […] Cells were collected by trypsinization, washed two times with ice-cold PBS, and re-suspended in 60% cold ethanol and kept at 4 °C for 60 min. PBS was used to wash the fixed cells and was re-suspended in 1.0 mL of PBS containing 10µg/mL propidium iodide and 50 µg/mL RNAase A. Cells were incubated in the dark at 37 °C for 20min; then, DNA contents were analyzed using flow cytometric analysis using an FL2 (λex/em 535/617 nm) signal detector. For each sample, 12,000 events were acquired. The cell cycle distribution was obtained by using ACEA NovoExpress^TM software.

[1] = test system: melanoma cancer cell lines; assay: NCI 60 screen, sub-panel mean; assay type: cell-based, human; conditions: NCI-60, melanoma sub-panel
Description: (§1) Anticancer profiling over a panel of 60 cancer cell lines was carried out at the National Cancer Institute (NCI), Bethesda, Maryland, USA, https://dtp.cancer.gov/discovery_development/nci-60/methodology.htm (Last visit 22 September 2021), using the standard procedure (detailed procedure is located in the Supplementary Information page 50 s).
(§2) NCI standard procedure for 60 cell lines assay
(§3) The human tumor cell lines of the cancer screening panel are grown in RPMI 1640 mediu m containing 5% fetal bovine serum and 2 mM L-glutamine. For a typical screening experiment, cells are inoculated into 96 well microtiter plates in 100 μL at plating densities ranging from 5,000 to 40,000 cells/well depending on the doubling time of individual cell lines. After cell inoculation, the microtiter plates are incubated at 37° C, 5 % CO2, 95 % air and 100 % relative humidity for 24 h prior to addition of experimental drugs.
(§4) After 24 h, two plates of each cell line are fixed in situ with TCA, to represent a measurement of the cell population for each cell line at the time of drug addition (Tz). Experimental drugs are solubilized in dimethyl sulfoxide at 400-fold the desired final maximum test concentration (10 µM) and stored frozen prior to use. At the time of drug addition, an aliquot of frozen concentrate is thawed and diluted to twice the desired final maximum test concentration with co mp lete medium containing 50 μg/ml gentamicin. Additional four, 10-fold or ½ log serial dilutions are made to provide a total of five drug concentrations plus control. Aliquots of 100 μl of these different drug dilutions are added to the appropriate microtiter wells already containing 100 μl of medium, resulting in the required final drug concentrations.
(§5) Following drug addition, the plates are incubated for an additional 48 h at 37°C, 5 % CO2, 95 % air, and 100 % relative humidity. For adherent cells, the assay is terminated by the addition of cold TCA. Cells are fixed in situ by the gentle addition of 50 μl of cold 50 % (w/v) TCA (final concentration, 10 % TCA) and incubated for 60 minutes at 4°C. The supernatant is discarded, and the plates are washed five times with tap water and air dried. Sulforhodamine B (SRB) solution (100 μl) at 0.4 % (w/v) in 1 % acetic acid is added to each well, and plates are incubated for 10 minutes at room temperature. After staining, unbound dye is removed by washing five times with 1 % acetic acid and the plates are air dried. Bound stain is subsequently solubilized with 10 mM trizma base, and the absorbance is read on an automated plate reader at a wavelength of 515 nm. For suspension cells, the methodology is the same except that the assay is terminated by fixing settled cells at the bottom of the wells by g ently adding 50 μl of 80 % TCA (final concentration, 16 % TCA). Using the seven absorbance measurements [time zero, (Tz), control growth, (C), and test growth in the presence of drug at the five concentration levels (Ti)], the percentage growth is calculated at each of the drug concentrations levels. Percentage growth inhibition is calculated as:
(§6) [(Ti-Tz)/(C-Tz)] x 100 for concentrations for which Ti>/=Tz
(§7) [(Ti-Tz)/Tz] x 100 for concentrations for which Ti<Tz.
(§8) Three dose response parameters are calculated for each experimental agent. Growth inhibition of […]
(§9) resulting in a 50% reduction in the net protein increase (as measured by SRB staining) in control cells during the drug incubation. The drug concentration resulting in total growth inhibition […]
(§10) (TGI) is calculated from Ti = Tz.

CNS cancer cell lines = assay: NCI 60 screen, sub-panel mean; assay type: cell-based, human; conditions: NCI-60, CNS sub-panel
Description: as §1, §2, §3, §4, §5, §6, §7, §8, §9, §10

O=S(=O)(NCCNc1nccc(-n2cnc3ccccc32)n1)c1ccc(C(F)(F)F)cc1 [12e, N-(2-((4-(1H-benzo [d]imidazol-1-yl)pyrimidin-2-yl)amino)ethyl)-4-(trifluoromethyl)benzenesulfonamide]
cells in S-phase, treated cells (T-47D cells; control 14%): 18%
cells in G1 phase, treated cells (T-47D cells; control 29%): 31%
cells in G2-phase, treated cells (T-47D cells; untreated 8%): 6%
mean percent inhibition [1]: 50%
mean percent inhibition (CNS cancer cell lines): 50%
